Results reported in patent EP2478902A1, “PHARMACEUTICAL COMPOSITION FOR REDUCING WEIGHT AND METHOD FOR THE PRODUCTION THEREOF” (World-Trade Import-Export Wtie, AG, priority 2009, dated 2011).

Columns and labels:
[1] = 3,000 mg/day of L-Carnitine, 10 weeks, calorie restriction, increased physical activity; cited from earlier work
[2] = 2,000 mg/day of L-Carnitine, 26 weeks, diet of 1,400 to 1,600 Kcal/day; cited from earlier work
[3] = Comparative, open-label, controlled clinical trial of Orlistat/L-Carnitine (OL-CA) vs Orlistat (OL) and L-Carnitine (CA) in adults with overweight above 10 %; type: in vivo, human; details: end of treatment (12 weeks), n = 20 per group; for subjects who reached a normal weight: one capsule a day
Method: A randomised, parallel, cross-over, prospective, open-label clinical trial.
Male and/or female subjects aged above 18 years, with overweight above 10 % their ideal weight.
• Group 1. Orlistat (OL) 120 mg, one capsule a day for 12 weeks. • Group 2. L-Carnitine (CA) 600 mg, one capsule a day for 12 weeks. • Group 3. Orlistat 120 mg and L-Carnitine 600 mg (OL-CA) in one capsule a day for 12 weeks.
• No other drug therapy was permitted for obesity and overweigh using any administration route during the clinical trial.
• Three treatment groups with random distribution 1:!;1
• Male and/or female subjects over 18 years of age. • Overweight above 10 % of their ideal weight or a Body Mass Index (BMI) of 28 kg/m2 or higher. • Poor response to previous diet therapy. • No participation in a clinical trial with a test drug or device for 30 days before the planned start of treatment. • Patients with or without risk factors associated with obesity (type 2 diabetes and systemic hypertension). • Following a nutritionally balanced and moderately hypocaloric plan containing about 30 % of calories from fat. • Women with child-bearing potential should use some contraceptive method during the treatment.
• Under 18 years of age • History of hypersensitivity to the components of the formula • Patients with any organ failure • Patients with a history of intolerance to lactose • Patients with a history of bowel malabsorption syndrome and cholestasis • Patients with suspected or diagnosed pancreatic disorder • Pregnant and/or nursing women • Diagnosed or suspected thyroid disorder • Patients currently on anticoagulants or cyclosporine and amiodarone.
Randomisation in to the study was stratified at a 1:1:1 ratio. The subjects were classified according to their body mass index. • Group A, 20 subjects with overweight, BMI of 25 to 29.9 kg/m2 • Group B, 20 subjects with grade 2 obesity, BMI of 30-39 kg/m2 • Group C, 20 subjects with grade 3 obesity BMI above 40 kg/m2 With regard to the BMI, the following values and interpretation are given • BMI 20 to 25 kg/m^2 = normal weight • BMI 25 to 29.9 kg/m^2 = Overweight • BMI 30 to 39 kg/m^2 - Grade 2 obesity • BMI above 40 kg/m^2 = Grade 3 obesity

[4] = 15 mg/kg/day of L-Carnitine, 26 weeks, cited from earlier work

Compound	weight loss between the two groups [1]	weight loss or differences between the groups at the end of the study [2]	patients reaching grade 2 obesity [3] [%]	patients reaching grade 2 obesity (number) [3] [subjects]	subjects who documented overweight [3] [%]	subjects who documented overweight (number) [3] [subjects]	subjects who reached a normal weight (number) [3]	subjects with grade 3 obesity [3] [%]	subjects with grade 3 obesity (number) [3] [subjects]	subjects who reached a normal weight [3] [%]	weight loss in the treatment group ([4]; restriction of 1,500 Kcal in diet, 60 subjects with obesity) [kg]	weight loss (significance) [4]
C[N+](C)(C)C[C@H](O)CC(=O)[O-] [CA, L-Carnitine]	No significant weight loss	No significant weight loss or differences between the groups	75	15	15	3	one	5	1	5	1.9	not significant
CCCCCCCCCCC[C@@H](C[C@@H]1OC(=O)[C@H]1CCCCCC)OC(=O)[C@H](CC(C)C)NC=O [OL]	–	–	65	13	10	2	one	20	4	5	–	–
